Experimental data taken from patent publication US20250236622A1, “BICYCLIC COMPOUNDS AS INHIBITORS OF WRN” (Incyte Corporation, priority 2023, published 2025).

Columns and labels:
WRN [1] = biological target: T1, WRN (Homo sapiens, UniProt Q14191); assay: WRN ATPase Activity Assay (ADP-Glo); type: biochemical; details: 1-hr pre-incubation with enzyme; 100 μM ATP, 25 nM forked dsDNA, 1 nM WRN; geometric mean of at least 2 replicates
T1 construct: A His-tagged construct of WRN (AA S2-S1235) was produced and used for the ATPase assay; made in house; host or cells: Sf9 insect cells (baculovirus, pFastBac1)
T1 sequence (Q14191 2-1235): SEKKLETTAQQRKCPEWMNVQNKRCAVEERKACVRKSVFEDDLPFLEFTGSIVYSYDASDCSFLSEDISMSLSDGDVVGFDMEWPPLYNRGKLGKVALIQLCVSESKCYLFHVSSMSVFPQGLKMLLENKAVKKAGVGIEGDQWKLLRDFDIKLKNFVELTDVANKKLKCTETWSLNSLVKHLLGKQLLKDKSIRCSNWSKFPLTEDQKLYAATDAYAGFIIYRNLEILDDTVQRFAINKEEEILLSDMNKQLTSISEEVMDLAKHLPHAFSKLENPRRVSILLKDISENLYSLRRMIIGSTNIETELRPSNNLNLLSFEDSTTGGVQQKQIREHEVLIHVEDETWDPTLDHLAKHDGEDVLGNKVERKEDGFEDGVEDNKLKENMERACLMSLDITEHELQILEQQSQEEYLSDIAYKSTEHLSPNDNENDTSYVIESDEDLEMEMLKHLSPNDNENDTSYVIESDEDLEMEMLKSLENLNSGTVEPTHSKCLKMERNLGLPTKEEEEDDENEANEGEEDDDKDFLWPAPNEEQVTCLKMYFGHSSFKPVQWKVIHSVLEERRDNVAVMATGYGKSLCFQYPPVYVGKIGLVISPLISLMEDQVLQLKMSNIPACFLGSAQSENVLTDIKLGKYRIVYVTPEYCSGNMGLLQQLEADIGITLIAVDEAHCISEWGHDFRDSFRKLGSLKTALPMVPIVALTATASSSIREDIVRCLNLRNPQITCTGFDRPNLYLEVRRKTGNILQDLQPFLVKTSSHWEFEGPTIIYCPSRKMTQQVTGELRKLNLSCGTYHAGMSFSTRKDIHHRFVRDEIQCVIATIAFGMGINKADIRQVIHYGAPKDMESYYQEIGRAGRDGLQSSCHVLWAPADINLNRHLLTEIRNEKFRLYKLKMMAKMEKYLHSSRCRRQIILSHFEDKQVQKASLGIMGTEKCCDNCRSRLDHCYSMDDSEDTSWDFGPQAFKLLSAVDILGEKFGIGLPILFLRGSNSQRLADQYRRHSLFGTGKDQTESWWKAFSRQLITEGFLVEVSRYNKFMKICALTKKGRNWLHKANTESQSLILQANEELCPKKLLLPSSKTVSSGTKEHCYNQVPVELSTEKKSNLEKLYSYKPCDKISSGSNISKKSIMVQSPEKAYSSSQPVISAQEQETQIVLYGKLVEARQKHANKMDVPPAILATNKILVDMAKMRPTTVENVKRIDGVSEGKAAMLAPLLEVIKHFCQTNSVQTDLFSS
Experimental: Compounds of the Examples were tested for WRN ATPase activity. WRN ATPase activity catalyzes ATP hydrolysis to produce ADP and phosphate. DNA encoding the target protein, 6×HIS-TEV-WRN-517-945, was produced, cloned and transfected as detailed in Example D. The amount of ADP produced was measured using ADP-Glo™ Kinase Assay kit from Promega Corporation in a Greiner white regular volume 384 wells assay plate (Greiner #781075). Data was normalized to a standard curve generated using various ADP concentrations and the corresponding luminescent signal intensities at each concentration.
The assay conditions were optimized for enzyme concentration (WRN), substrate concentrations (ATP & dsDNA), and the linearity of the ATPase reaction, in the following assay buffer: 50 mM Tris-HCl, pH-7.5, 2 mM MgCl2, 50 mM NaCl, 1 mM EGTA, 0.01% P-20, 0.05% BSA, and 2 mM DTT prepared with nuclease free water.
A serial dilution (1:3 scheme) of the compounds were prepared in neat DMSO, with 100 nL of the compounds dispensed in the 384 wells assay plate. An 1-hr pre-incubation of the compounds with enzyme was included. A His-tagged construct of WRN (AA S2-S1235) was produced and used for the ATPase assay. Maximum inhibition control wells were set up with the addition of only assay buffer, and no inhibition control wells were set up with neat DMSO without test compounds. The reaction was initiated by addition of 5 μL substrate mix (200 μM ultrapure ATP, and 50 nM dsDNA prepared in assay buffer) and incubated at 25° C. for 35 min. A forked dsDNA oligomer substrate was prepared by annealing equal amounts of oligo GPat-1 ([BHQ2][…]) and oligo GPat-2 ([…][TAM]) and was used as dsDNA substrate for WRN ATPase assay. A typical ATPase reaction consists of 25 nM forked dsDNA, 100 μM ATP, and 1 nM WRN prepared in assay buffer. The WRN ATPase reaction was stopped by the addition of 5 μL of ADP-Glo Reagent from ADP-Glo™ Kinase Assay kit and incubated for 40 min to deplete the unreacted ATP. Afterwards, 5 μL of Kinase Detection Reagent from the ADP-Glo™ Kinase Assay kit was added and incubated for 1 hr for the development of luminescence signal.
Luminesce signals were measured on BMG PHERAstar FSX using luminescence protocol. Data analysis was carried out using Genedata software following % of control normalization. Fitting parameters include dose response IC50, Hill slope (n), maximum inhibition (S∞), and minimum inhibition (S0). The reported IC50 values for compounds in this invention are the geometric means of at least 2 independent replicates.

WRN [2] = biological target: T1, WRN; assay: WRN Helicase Activity Assay (fluorescence DNA unwinding); type: biochemical; details: 1-hr pre-incubation with enzyme; 100 μM ATP, 25 nM forked dsDNA, 1 nM WRN; geometric mean of at least 2 replicates
Experimental: Compounds of the examples were tested for WRN helicase activity. DNA encoding the target protein, 6×HIS-TEV-WRN-517-945, was produced, cloned and transfected as detailed in Example D. To determine the inhibitory properties of the compounds, a 384 wells plate-based Helicase assay was set up to measure the extent of DNA unwinding (Helicase) activity of WRN. The WRN Helicase assay was designed to measure increase in fluorescence signal using a fluorescence based, donor-quencher paired forked dsDNA oligomer substrate (custom synthesis from Sigma-Aldrich) prepared by annealing equal amounts of oligo GPat-1 ([BHQ2][…]) and oligo GPat-2 ([…][TAM]). Continuous measurement of fluorescent signal was used to optimize the buffer conditions, concentration of enzyme (WRN), concentration of substrates (ATP & dsDNA), and the linearity of the Helicase reaction. All solutions were prepared in the following assay buffer: 50 mM Tris-HCl, pH-7.5, 2 mM MgCl2, 50 mM NaCl, 1 mM EGTA, 0.01% P-20, 0.05% BSA, and 2 mM DTT prepared with nuclease free water.
A serial dilution (1:3 scheme) of the compounds was prepared in neat DMSO and 100 nL of the compounds was dispensed in the Greiner black low volume (Greiner #784076) 384 wells assay plate. An 1-hr pre-incubation of the compounds with enzyme was included. A His-tagged construct of WRN (AA S2-S1235) was produced and used for the ATPase assay. Maximum inhibition control wells were set up with the addition of only assay buffer, and no inhibition control wells were set up with neat DMSO without test compounds. The reaction was initiated by addition of 5 μL substrate mix (200 μM ultrapure ATP, and 50 nM dsDNA prepared in assay buffer) and incubated at 25° C. for 35 min. A typical Helicase reaction consists of 25 nM forked dsDNA, 100 μM ATP, and 1 nM WRN prepared in assay buffer. The WRN Helicase reaction was quenched by the addition of 5 μL ‘STOP’ solution containing 100 mM EDTA (final EDTA concentration 33.33 mM) prepared in assay buffer. The plates were read on BMG PHERAstar FSX using 540/590 module to measure an increase of fluorescence. Data analysis was carried out using the Genedata software following % of control normalization. Fitting parameters include dose response IC50, Hill slope (n), maximum inhibition (S∞), and minimum inhibition (S0). The reported IC50 values for compounds in this invention are the geometric means of at least 2 independent replicates.

Row | Structure (SMILES) | IC50 (WRN [1]) | IC50 (WRN [2])
1 | C=CC(=O)Nc1ccccc1-c1c(CC)nc2n(CC(=O)Nc3ccc(C(F)(F)F)cc3)c(C3CCCCC3)nn2c1=O [Example 4, N-(2-(2-Cyclohexyl-5-ethyl-7-oxo-3-(2-oxo-2-((4-(trifluoromethyl)phenyl)amino)ethyl)-3,7-dihydro-[1,2,4]triazolo[1,5-a]pyrimidin-6-yl)phenyl)acrylamide] | 1000 to 5000 nM | 5000 to 20000 nM
2 | C=CC(=O)Nc1ccccc1-c1c(CC)nc2n(CC(=O)Nc3ccc(C(F)(F)F)cc3)c(C3CCC3)nn2c1=O [Example 3, N-(2-(2-Cyclobutyl-5-ethyl-7-oxo-3-(2-oxo-2-((4-(trifluoromethyl)phenyl)amino)ethyl)-3,7-dihydro-[1,2,4]triazolo[1,5-a]pyrimidin-6-yl)phenyl)acrylamide] | 100 to 500 nM | 100 to 500 nM
3 | C=CC(=O)Nc1ccccc1-c1c(CC)nc2n(CC(=O)Nc3ccc(C(F)(F)F)cc3)c(C)nn2c1=O [Example 1, N-(2-(5-Ethyl-2-methyl-7-oxo-3-(2-oxo-2-((4-(trifluoromethyl)phenyl)amino)ethyl)-3,7-dihydro-[1,2,4]triazolo[1,5-a]pyrimidin-6-yl)phenyl)acrylamide] | < 100 nM | < 100 nM
4 | C=CC(=O)Nc1ccccc1-c1c(CC)nc2n(CC(=O)Nc3ccc(C(F)(F)F)cc3)c(C3CC3)nn2c1=O [Example 2, N-(2-(2-Cyclopropyl-5-ethyl-7-oxo-3-(2-oxo-2-((4-(trifluoromethyl)phenyl)amino)ethyl)-3,7-dihydro-[1,2,4]triazolo[1,5-a]pyrimidin-6-yl)phenyl)acrylamide] | < 100 nM | < 100 nM
5 | C=CC(=O)Nc1ccccc1-c1c(CC)nc2n(CC(=O)Nc3ccc(C(F)(F)F)cc3)c(-c3cccs3)nn2c1=O [Example 5, N-(2-(5-ethyl-7-oxo-3-(2-oxo-2-((4-(trifluoromethyl)phenyl)amino)ethyl)-2-(thiophen-2-yl)-3,7-dihydro-[1,2,4]triazolo[1,5-a]pyrimidin-6-yl)phenyl)acrylamide] | 100 to 500 nM | 100 to 500 nM
6 | C=CC(=O)Nc1ccccc1-c1c(CC)nc2n(CC(=O)Nc3ccc(C(F)(F)F)cc3)c(C3CCNCC3)nn2c1=O [Example 6, N-(2-(5-Ethyl-7-oxo-3-(2-oxo-2-((4-(trifluoromethyl)phenyl)amino)ethyl)-2-(piperidin-4-yl)-3,7-dihydro-[1,2,4]triazolo[1,5-a]pyrimidin-6-yl)phenyl)acrylamide] | 1000 to 5000 nM | 1000 to 5000 nM
